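Exposure lasted 48 hours, with cells grown in 96-well plates and compounds tested at five concentrations. TGI: total growth inhibition.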
Tests used:
Experiment in all cases: NCI-60 cell line screen, 48 h
786-0 renal = system: 786-0 renal
A498 renal = system: A498 renal
A549 NSCLC = system: A549 NSCLC
ACHN renal = system: ACHN renal
CAKI-1 renal = system: CAKI-1 renal
COLO 205 colon = system: COLO 205 colon
DMS 114 small cell lung = system: DMS 114 small cell lung
DMS 273 small cell lung = system: DMS 273 small cell lung
EKVX NSCLC = system: EKVX NSCLC
HCC-2998 colon = system: HCC-2998 colon
HCT-116 colon = system: HCT-116 colon
HCT-15 colon = system: HCT-15 colon
HL-60(TB) leukemia = system: HL-60(TB) leukemia
HOP-62 NSCLC = system: HOP-62 NSCLC
HT29 colon = system: HT29 colon
IGROV1 ovarian = system: IGROV1 ovarian
K-562 leukemia = system: K-562 leukemia
KM12 colon = system: KM12 colon
KM20L2 colon = system: KM20L2 colon
LOX IMVI melanoma = system: LOX IMVI melanoma
M14 melanoma = system: M14 melanoma
M19-MEL melanoma = system: M19-MEL melanoma
MALME-3M melanoma = system: MALME-3M melanoma
MOLT-4 leukemia = system: MOLT-4 leukemia
NCI-H226 lung = system: NCI-H226 lung
NCI-H23 lung = system: NCI-H23 lung
NCI-H460 lung = system: NCI-H460 lung
OVCAR-3 ovarian = system: OVCAR-3 ovarian
OVCAR-4 ovarian = system: OVCAR-4 ovarian
OVCAR-5 ovarian = system: OVCAR-5 ovarian
OVCAR-8 ovarian = system: OVCAR-8 ovarian
RPMI-8226 leukemia = system: RPMI-8226 leukemia
RXF 393 renal = system: RXF 393 renal
SF-268 CNS = system: SF-268 CNS
SF-295 CNS = system: SF-295 CNS
SF-539 CNS = system: SF-539 CNS
SK-MEL-2 melanoma = system: SK-MEL-2 melanoma
SK-MEL-28 melanoma = system: SK-MEL-28 melanoma
SK-MEL-5 melanoma = system: SK-MEL-5 melanoma
SK-OV-3 ovarian = system: SK-OV-3 ovarian
SN12C renal = system: SN12C renal
SNB-75 CNS = system: SNB-75 CNS
SNB-78 CNS = system: SNB-78 CNS
SR leukemia = system: SR leukemia
SW-620 colon = system: SW-620 colon
TK-10 renal = system: TK-10 renal
U251 CNS = system: U251 CNS
UACC-257 melanoma = system: UACC-257 melanoma
XF 498 CNS = system: XF 498 CNS

Measured: TGI

Cc1ccc(C=NC23CC4CC(CC(C4)C2)C3)cc1
> 100 µM: all assays above

Source: PubChem BioAssay (NCI)
